Measured values from patent US20210268101A1 (priority 2020, published 2021).
Values joined by “and” are separate entries in the source; they are usually repeats but may differ in a detail not shown here. Equal values may be shown once. Read-outs that look alike come from different tables or passages of the source.

Tested on: Balb/c mice
Settings: serum 1:50

Row | Sequence | Responders/Group Total (n = 8) (cutoff OD 0.3 (A450), Day 10) | Responders/Group Total (n = 8) (cutoff OD 0.3 (A450), Day 19) | Responders/Group Total (n = 8) (cutoff OD 0.3 (A450), Day 28) | Responders/Group Total (n = 8) (cutoff OD 0.3 (A450), Day 42) | Responders/Group Total (n = 8) (cutoff OD 0.5 (A450), Day 10) | Responders/Group Total (n = 8) (cutoff OD 0.5 (A450), Day 19) | Responders/Group Total (n = 8) (cutoff OD 0.5 (A450), Day 28) | Responders/Group Total (n = 8) (cutoff OD 0.5 (A450), Day 42) | Responders/Group Total (n = 8) (cutoff OD 1.0 (A450), Day 10) | Responders/Group Total (n = 8) (cutoff OD 1.0 (A450), Day 28) | Responders/Group Total (n = 8) (cutoff OD 1.0 (A450), Day 42) | Responders/Group Total (n = 8) (cutoff OD 1.5 (A450), Day 10) | Responders/Group Total (n = 8) (cutoff OD 1.5 (A450), Day 28) | Responders/Group Total (n = 8) (cutoff OD 1.5 (A450), Day 42) | Responders/Group Total (n = 8) (cutoff OD 1.0 (A450), Day 19) | Responders/Group Total (n = 8) (cutoff OD 1.5 (A450), Day 19)
1 | DGQEEKAGVVSTGLIGGGVILLNKHIDAYKTF [DerG-NP350] | 8 and 8/8 | 8/8 | 8/8 | 8/8 | 8 and 8/8 | 8/8 | 8/8 | 8/8 | 2/8 | 8/8 | 8/8 | 0/8 | 8/8 | 8/8 |  | 
2 | DLLKNGERIEKVEGGGVILLNKHIDAYKTF [J-NP350] |  | 7/8 | 8/8 | 8/8 |  | 7/8 | 8/8 | 8/8 | 0/8 | 8/8 | 8/8 | 0/8 | 2/8 | 6 and 6/8 | 6 and 6/8 | 1/8
